In patent US20080261994A1, “CYCLOPROPANE COMPOUNDS AND PHARMACEUTICAL USE THEREOF” (Japan Tobacco Inc., priority 2003, published 2008):

Key:
Type in all cases: biochemical
MMP-1 = molecular target: T1, MMP-1 (Homo sapiens, UniProt P03956); assay: MMP-1 inhibitory action (Type I collagen Activity Measurement kit, FITC-labeled collagen type I); conditions: MMP-1 inhibitory action, FITC-labeled collagen type I, 37° C. for 3 hr; read-out: IC50 MMP1 (Experimental Example 2)
T1 sequence (P03956 100-469): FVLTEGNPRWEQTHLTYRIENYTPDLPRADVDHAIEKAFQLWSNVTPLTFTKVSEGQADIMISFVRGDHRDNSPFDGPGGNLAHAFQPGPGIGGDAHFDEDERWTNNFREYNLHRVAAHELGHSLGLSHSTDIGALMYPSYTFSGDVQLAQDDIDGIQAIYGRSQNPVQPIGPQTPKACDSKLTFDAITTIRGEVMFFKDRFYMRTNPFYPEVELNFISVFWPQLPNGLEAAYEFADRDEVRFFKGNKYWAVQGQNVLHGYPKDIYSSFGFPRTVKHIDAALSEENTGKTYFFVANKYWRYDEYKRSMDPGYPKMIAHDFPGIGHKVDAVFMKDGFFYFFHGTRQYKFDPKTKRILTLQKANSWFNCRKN
Procedure: For MMP-1 Assay, Type I collagen Activity Measurement kit (YAGAI YU-72013) modified to a 96-well plate format was used.
The principle of the kit is based on the property of collagen that becomes soluble in ethanol after being cleaved by MMP-1.
(§1) The enzyme and substrate were diluted with Tris-HCl buffer, and test compounds were diluted with dimethyl sulfoxide (DMSO).
The enzyme and test compounds were added into 96-well plate, and fluorescein isothiocianate (FITC)-labeled collagen type I was added as a substrate and the mixture was incubated at 37° C. for 3 hr.
The reaction was terminated by addition of Tris-HCl buffer containing ethanol. After centrifugation, the supernatant containing denatured substrate was transferred to another 96-well plate. The collagenase activity of MMP-1 was determined by measuring FITC fluorescence intensity (excitation wavelength 485 nm, emission wavelength 530 nm) of each well. The inhibitory activity of the compound in each well (%) was calculated based on the values of enzyme-free well and inhibitor-free well. The inhibitory activity of the compound was represented as IC50 (μM).

aggrecanase-1 = molecular target: T2, aggrecanase-1 (Homo sapiens, UniProt O75173); assay: Aggrecanase-1 inhibitory action (Particle Assay, GAG release from aggrecan-containing polyacrylamide particles); conditions: aggrecanase-1 inhibitory action; read-out: IC50 AG1 (Experimental Example 1)
T2 sequence (O75173 213-837): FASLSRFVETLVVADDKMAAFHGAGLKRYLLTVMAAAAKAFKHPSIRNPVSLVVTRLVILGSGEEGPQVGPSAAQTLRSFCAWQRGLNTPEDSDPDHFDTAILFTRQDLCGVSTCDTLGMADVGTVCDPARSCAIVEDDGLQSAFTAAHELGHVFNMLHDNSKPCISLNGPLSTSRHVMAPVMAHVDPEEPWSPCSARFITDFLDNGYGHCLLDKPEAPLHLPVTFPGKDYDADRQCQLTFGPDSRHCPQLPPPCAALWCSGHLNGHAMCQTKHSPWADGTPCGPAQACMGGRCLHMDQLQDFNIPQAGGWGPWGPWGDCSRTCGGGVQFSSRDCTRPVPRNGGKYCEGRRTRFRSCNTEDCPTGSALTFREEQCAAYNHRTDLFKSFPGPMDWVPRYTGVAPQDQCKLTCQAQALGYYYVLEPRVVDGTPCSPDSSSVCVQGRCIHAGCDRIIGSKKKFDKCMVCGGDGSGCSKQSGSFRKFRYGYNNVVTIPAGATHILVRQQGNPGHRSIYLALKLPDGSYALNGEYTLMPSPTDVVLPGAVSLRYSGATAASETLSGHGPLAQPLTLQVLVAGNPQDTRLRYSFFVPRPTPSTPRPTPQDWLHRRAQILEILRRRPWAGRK
Procedure: Particle Assay was used for determination of aggrecanase activity.
as §1
Test compounds and the enzyme were added into 96-well plate, and polyacrylamide particles containing aggrecan were added as a substrate and the mixture was incubated at 37° C. for 15 hr.
After incubation, the supernatant was transferred to another plate, and mixed with 1,9-dimethylmethylene blue. The absorbence at 595 nm was measured to quantify the amount of glycosaminoglycan (GAG) released in the reaction supernatant. Whale chondroitin sulfate was used as the standard of GAG. The inhibitory activity of the compound in each well (%) was calculated based on the values of enzyme-free well and inhibitor-free well. The inhibitory activity of the compound was represented as […] (μM).

Recombinant Human MMP-13 = molecular target: T3, Recombinant Human MMP-13 (Homo sapiens, UniProt P45452); assay: MMP-13 inhibitory activity (MMP-13 specific fluorescent substrate with quencher); conditions: Recombinant Human MMP-13, fluorescent substrate, 25° C. for 1 h; read-out: IC50 MMP13 (Experimental Example 3)
T3 construct: purchased R&D systems 511-MM
Procedure: Inhibitory activity of tested compounds on MMP-13 was measured using MMP-13 specific fluorescent substrate with quencher.
as §1
Test compounds and the enzyme (Recombinant Human MMP-13: R&D systems, 511-MM) were added into 96-well plate. The reaction was initiated by adding synthetic substrate (7-MCA-Pro-CHA-Gly-NVal-His-Ala-DPA: enzyme systems products, Met-06) into the plate. After incubation at 25° C. for 1 h, the reaction was terminated by addition of reaction terminating solution containing acetic acid. Fluorescence intensity of each well was measured (Ex: 325 nm, […] 405 nm) and the MMP-13 inhibitory activity of the compound in each well (%) was calculated based on the values of enzyme-free well and inhibitor-free well. The inhibitory activity of the compound was represented as IC50 (μM).

IC50 (MMP-1) | IC50 (aggrecanase-1) | IC50 (Recombinant Human MMP-13) | Structure (SMILES)
≥ 1000 nM | < 1000 nM | < 100 nM | COC(=O)Nc1cccc(C2CC2(NS(=O)(=O)c2ccc(-c3ccc(Cl)cc3)cc2)C(=O)O)c1 (stereo not drawn) [Example 1-41]
≥ 1000 nM | < 1000 nM | < 1000 nM | O=C(O)C1(NS(=O)(=O)c2ccc(-c3ccc4c(c3)Cc3ccccc3-4)cc2)CC1c1ccccc1 (stereo not drawn) [Example 1-54]
≥ 1000 nM | < 1000 nM | < 100 nM | O=C(O)C1(NS(=O)(=O)c2ccc(-c3ccc(Cl)cc3)cc2)CC1c1cccc(Nc2ccccn2)c1 (stereo not drawn) [Example 1-61]
≥ 1000 nM | < 1000 nM | < 100 nM | O=C(Nc1cccc(C2CC2(NS(=O)(=O)c2ccc(-c3ccc(Cl)cc3)cc2)C(=O)O)c1)c1ccccn1 (stereo not drawn) [Example 1-62]
≥ 1000 nM | < 1000 nM | < 100 nM | O=C(Nc1cccc(C2CC2(NS(=O)(=O)c2ccc(-c3ccc(Cl)cc3)cc2)C(=O)O)c1)c1ccncc1 (stereo not drawn) [Example 1-63]
≥ 1000 nM | < 1000 nM | < 100 nM | O=C(Nc1cccc(C2CC2(NS(=O)(=O)c2ccc(-c3ccc(Cl)cc3)cc2)C(=O)O)c1)c1cccnc1 (stereo not drawn) [Example 1-64]
≥ 1000 nM | < 1000 nM | < 100 nM | O=C(O)C1(NS(=O)(=O)c2ccc(-c3ccc(Cl)cc3)cc2)CC1c1cccc(OCCO)c1 (stereo not drawn) [Example 1-66]
≥ 1000 nM | < 1000 nM | < 100 nM | O=C(O)C1(NS(=O)(=O)c2ccc(-c3ccc(Cl)cc3)cc2)CC1c1cccc(Oc2cccnc2)c1 (stereo not drawn) [Example 1-68]
≥ 10000 nM | < 100 nM | < 1000 nM | O=C(O)C1(NS(=O)(=O)c2ccc(-c3ccc(Cl)cc3)s2)CC1c1ccccc1 (stereo not drawn) [Example 1-69]
≥ 1000 nM | < 100 nM | < 1000 nM | O=C(O)C1(NS(=O)(=O)c2ccc3c(c2)Cc2cc(Br)ccc2-3)CC1c1ccccc1 (stereo not drawn) [Example 1-72]
≥ 1000 nM | < 1000 nM | < 100 nM | O=C(O)C1(NS(=O)(=O)c2ccc(-c3ccc(Cl)cc3)cc2)CC1c1cccc(OCCN2CCOCC2)c1 (stereo not drawn) [Example 1-74]
≥ 1000 nM | < 1000 nM | < 100 nM | O=C(O)C1(NS(=O)(=O)c2ccc(-c3ccc(Cl)cc3)cc2)CC1c1cccc(OCCn2cccn2)c1 (stereo not drawn) [Example 1-75]
≥ 10000 nM | < 1000 nM | < 100 nM | O=C(O)C1(NS(=O)(=O)c2ccc(-c3ccc(Cl)cc3)cc2)CC1c1cccc(OCc2cccnc2)c1 (stereo not drawn) [Example 1-76]
≥ 1000 nM | < 1000 nM | < 100 nM | O=C(O)C1(NS(=O)(=O)c2ccc(-c3ccc(Cl)cc3)cc2)CC1c1cccc(OCCn2ccnc2)c1 (stereo not drawn) [Example 1-83]
≥ 10000 nM | < 1000 nM | < 1000 nM | O=C(O)C1(NS(=O)(=O)c2ccc(-c3ccc(Cl)cc3)s2)CC1c1ccccc1OCc1ccccc1 (stereo not drawn) [Example 1-84]
≥ 1000 nM | < 100 nM | < 100 nM | O=C(O)[C@]1(NS(=O)(=O)c2ccc(-c3ccc(Cl)cc3)s2)C[C@@H]1c1ccccc1 [Example 1-85]
≥ 1000 nM | < 1000 nM | < 1000 nM | O=C(O)C1(NS(=O)(=O)c2ccc(-c3ccc(Cl)cc3)s2)CC1c1cccc(OCCO)c1 (stereo not drawn) [Example 1-86]
≥ 10000 nM | < 100 nM | < 1000 nM | O=C(O)C1(NS(=O)(=O)c2ccc(-c3ccc(Cl)cc3)s2)CC1c1cccc(Oc2cccnc2)c1 (stereo not drawn) [Example 1-88]

IC50 (MMP-1) | IC50 (aggrecanase-1) | IC50 (Recombinant Human MMP-13) | Structure (SMILES)
≥ 1000 nM | < 1000 nM | < 100 nM | O=C(O)C1(NS(=O)(=O)c2ccc(-c3ccc(Cl)cc3)cc2)CC1c1cccc(NCc2cnc[nH]2)c1 (stereo not drawn) [Example 1-90]
≥ 1000 nM | < 100 nM | < 100 nM | O=C(O)[C@]1(NS(=O)(=O)c2ccc3c(c2)Cc2cc(Br)ccc2-3)C[C@@H]1c1ccccc1 [Example 1-91]
≥ 1000 nM | < 100 nM | < 100 nM | O=C(O)C1(NS(=O)(=O)c2ccc3c(c2)Cc2cc(Cl)ccc2-3)CC1c1ccccc1 (stereo not drawn) [Example 1-94]
≥ 1000 nM | < 100 nM | < 1000 nM | O=C(O)C1(NS(=O)(=O)c2ccc(-c3ccc(Cl)cc3)s2)CC1c1ccccc1O (stereo not drawn) [Example 1-102]
≥ 10000 nM | < 1000 nM | < 1000 nM | CN1CCN(Cc2cccc(C3CC3(NS(=O)(=O)c3ccc(-c4ccc(Cl)cc4)s3)C(=O)O)c2)CC1 (stereo not drawn) [Example 1-103]
≥ 1000 nM | < 100 nM | < 100 nM | O=C(O)C1(NS(=O)(=O)c2ccc(-c3ccc(Cl)cc3)s2)CC1c1cccc(OCc2cccnc2)c1 (stereo not drawn) [Example 1-107]
≥ 1000 nM | < 100 nM | < 100 nM | O=C(O)C1(NS(=O)(=O)c2ccc(-c3ccc(Cl)cc3)s2)CC1c1cccc(OCc2ccccn2)c1 (stereo not drawn) [Example 1-108]
≥ 10000 nM | < 1000 nM | < 1000 nM | O=C(O)[C@@]1(NS(=O)(=O)c2ccc3c(c2)Cc2cc(Br)ccc2-3)C[C@H]1c1ccccc1 [Example 1-109]
≥ 1000 nM | < 100 nM | < 1000 nM | O=C(O)c1cccc(C2CC2(NS(=O)(=O)c2ccc(-c3ccc(Cl)cc3)s2)C(=O)O)c1 (stereo not drawn) [Example 1-113]
≥ 1000 nM | < 100 nM | < 100 nM | O=C(O)COc1cccc(C2CC2(NS(=O)(=O)c2ccc(-c3ccc(Cl)cc3)cc2)C(=O)O)c1 (stereo not drawn) [Example 1-119]
≥ 1000 nM | < 100 nM | < 100 nM | O=C(O)C1(NS(=O)(=O)c2ccc(-c3cc(C(F)(F)F)on3)s2)CC1c1ccccc1 (stereo not drawn) [Example 1-121]
≥ 1000 nM | < 100 nM | < 100 nM | O=C(O)C1(NS(=O)(=O)c2ccc3c(c2)oc2cc(Cl)ccc23)CC1c1ccccc1 (stereo not drawn) [Example 1-122]
≥ 1000 nM | < 100 nM | < 1000 nM | O=C(O)C1(NS(=O)(=O)c2ccc(-c3ccc(Cl)cc3)s2)CC1c1cccc([N+](=O)[O-])c1 (stereo not drawn) [Example 1-127]
≥ 1000 nM | < 100 nM | < 1000 nM | Nc1cccc(C2CC2(NS(=O)(=O)c2ccc(-c3ccc(Cl)cc3)s2)C(=O)O)c1 (stereo not drawn) [Example 1-128]
≥ 1000 nM | < 100 nM | < 100 nM | O=C(O)C1(NS(=O)(=O)c2ccc(-c3ccc(Cl)cc3)s2)CC1c1cccc(NCc2cccnc2)c1 (stereo not drawn) [Example 1-129]
≥ 1000 nM | < 100 nM | < 100 nM | CS(=O)(=O)Nc1cccc(C2CC2(NS(=O)(=O)c2ccc(-c3ccc(Cl)cc3)s2)C(=O)O)c1 (stereo not drawn) [Example 1-130]
≥ 1000 nM | < 100 nM | < 100 nM | O=C(O)[C@]1(NS(=O)(=O)c2ccc(-c3ccc(Cl)cn3)s2)C[C@@H]1c1ccccc1 [Example 1-131]
